Key:
[1] = test system: Chlorella sp. (ATCC 7516); assay: Evaluation of algaecidal activity (MIC, checkerboard synergy) against Chlorella sp.; type: cell-based; settings: for [A]/MICA + [B]/MICB (Fractional Inhibitory Concentration Index, FIC): Chlorella sp., <1 denotes synergy; for MIC (ppm product): Chlorella sp. (ATCC 7516), 14 days at 24 C, 16 h light/8 h darkness, enzyme alone
Experimental: (§1) A. Evaluation of Algaecidal Activity. This test method provides a technique for testing compounds for their effectiveness to inhibit (repress) algae growth.
(§2) Cell suspension from a culture grown in modified Allen's medium for 14 days or as needed to attain a desired cell mass of Chlorella sp. (ATCC 7516) or Phormidium faveolarum (UTEX 427). The inoculum is calibrated at 82% transmittance measured at 590 nanometers wavelength before inoculation.
(§3) Sterilize the medium in the autoclave for 20 minutes at 15 pounds pressure (121° C.). After autoclaving, cool medium to 45-50° C. and dispense 5 ml of medium per test tube, then add the compound and the inoculum.
(§4) Prepare a stock solution in water of the compound to be tested. The concentration of the stock solution is dependent on the largest dosage desired to be tested. Dilute the stock solution to obtain dosages smaller than that chosen for the stock solution. A maximum amount of 100 microliters of stock solution or the corresponding dilution should be added per test tube.
• Add 100 microliters of inoculum per test tube, per type of medium and type of inoculum. Incubation: • Place the test tubes containing the treatments in an incubator set at 24° C. Light is provided by plant growth fluorescent tubes set to provide 16 h of light and 8 h of darkness. […] The minimum inhibitory concentration (MIC) of the compound is the smallest dosage showing negative algae growth. Synergy Evaluation:
Synergy was measured by checkerboards dilutions (Yan and Hancock, 2001), in which one compound is diluted along the rows of test tubes and the other is diluted along the columns. This method focuses on looking for a reduction in the MIC of each component in the presence of the other.

[2] = test system: Phormidium faveolarum (UTEX 427); assay: Evaluation of algaecidal activity (MIC, checkerboard synergy) against Phormidium faveolarum; type: cell-based; settings: <1 denotes synergy
Experimental: as §1, §2, §3, §4
• Add 100 microliters of inoculum per test tube, per type of medium and type of inoculum. Incubation: • Place the test tubes containing the treatments in an incubator set at 24° C. […]
Synergy was measured by checkerboards dilutions (Yan and Hancock, 2001), in which one compound is diluted along the rows of test tubes and the other is diluted along the columns. […]

[Cl-].[Na+] [Sodium Chloride]
[A]/MICA + [B]/MICB (Fractional Inhibitory Concentration Index, FIC) ([1]; Example 10, 14 days): 1.000 | [A]/MICA + [B]/MICB (Fractional Inhibitory Concentration Index, FIC) ([2]; Example 11, 14 days): 1.00

Lysozyme Chloride [Lysozyme Chloride (MP Biomedicals)]
MIC (ppm product) [1]: 0.1-0.4 ppm product

Lysozyme [Lysozyme (Sigma)]
MIC (ppm product) [1]: 0.4-0.7 ppm product

Benzalkonium Chloride [reference compound]
[A]/MICA + [B]/MICB (Fractional Inhibitory Concentration Index, FIC) ([1]; Example 1, 18 days): 1.000 | [A]/MICA + [B]/MICB (Fractional Inhibitory Concentration Index, FIC) ([2]; Example 2, 18 days): 1.00

Lysozyme Chloride [Lysozyme Chloride (NutriScience)]
MIC (ppm product) [1]: 0.4-0.7 ppm product

From patent publication US7348301B2, “Lysozyme-based method and composition to control the growth of microorganisms in aqueous systems” (Buckman Laboratories International, Inc., priority 2006, dated 2008)
